The nature of series [1]: Distribution of radioactivity in tumor and organs at sacrifice. The series is classed as in vivo, nude mice. An excerpt: (§1) These organs were then weighed.
Series [2] relates to human colorectal carcinoma cells LS174T. As to conditions: single intratumoral injection, day 22, control tumor 3.2 cm.
Protocol: Tumors were allowed to grow to approximately 0.5 cm in diameter.
On day one, two of the four tumor-bearing mice received a single intratumoral injection of approximately 100 μl Indium-111-oxine. Mice were placed in an ionization chamber, and radioactivity was recorded after the injection and then daily for 28 days. On each day, radioactivity was corrected for decay, and the percent of injected dose retained in the animal was calculated and recorded. Animals were also weighed daily in a calibrated balance.
On day one, all four mice were lightly anesthetized and photographs taken. Mice receiving Indium-111-oxine were also imaged with a gamma camera 28 days later. This qualitatively recorded the distribution of radioactivity, 28 days after it was injected.The control animals received a single intratumoral injection of 100 μl of 25% ethanol in 0.9% NaCl. Two radioactive animals and the control animals were then cared for in two separated cages and allowed to eat and drink at liberty.
On day 22, the two mice treated with Indium-111-oxine received 100 μl of Indium-111-Merc each in two places in tumors. The control animals also received two intratumoral injection of 0.05 M phosphate buffer pH−7.4.
As before, the mice were weighed daily and radioactivity remaining in their bodies was measured for an additional 10 days.
The test system of the next series is cells. Conditions: cited from earlier work.
A short description of series [3]: Body weight, additional studies. The format is in vivo, nude mice. Conditions: treatment period.
Protocol: Human prostate and human breast tumors were grown in two separate groups of nude mice. Six mice in each group were divided in two subgroups of 3 mice each. Three mice were treated with intratumoral injections of either Indium-111-oxine or Indium-111-Merc. Each group of mice was then placed in rodent cages separately and cared for with regular diet and water ad lib. Each day the animals were weighed, and tumor diameter was measured three times with a Vernier caliper.
Series [4] is described as follows: Retention of radioactivity after intratumoral injection, first study (gamma camera, ionization chamber). The format is in vivo, athymic nude mice.
Series [5] concerns human prostate cancer cells DU145. Conditions: one month.
Protocol: Additional feasibility studies were performed using two lipid soluble agents, Indium-111-oxine and Indium-111-Mercaptopyridine-N-oxide (Merc). Human prostate and human breast tumors were grown in two separate groups of nude mice. Six mice in each group were divided in two subgroups of 3 mice each. Three mice were treated with intratumoral injections of either Indium-111-oxine or Indium-111-Merc. Each group of mice was then placed in rodent cages separately and cared for with regular diet and water ad lib. Each day the animals were weighed, and tumor diameter was measured three times with a Vernier caliper.
Radioactivity received by each animal was carefully measured, and each day the amount of radioactivity retained in the animal body was measured using an energy calibrated radiation dose calibrator. Two weeks after the first injection, a second dose of the same agent was readministered, also intratumorally and the procedure was followed as described above, for the next two weeks. […] Indium-111 associated with each tissue was counted, and the radioactivity distributed in each organ was calculated as the percent of the total radioactivity retrained in each animal. Histology on critical organs, such as the liver, bladder, and kidney, as well as tumor histology, was assessed in treated animals and in untreated control animals. […]
The conditions of series [6]: cited from earlier work.
Series [7] deals with human breast cancer cells T47D. The series can be described thus: Intratumoral injection study on T47D tumor-bearing nude mice: tumor size. The series is classed as in vivo. Conditions: one month. The method, then:
as §1
Indium-111-Merc was prepared also by a method described previously. (Thakur et al, J Nucl Med 26: 518-523, 1985). Briefly, to one ml 0.067 M phosphate buffer pH 7.4, a required quantity of Indium-111-chloride was added followed by 50 μg Merc in 50 μl 0.067 M phosphate buffer pH 7.4. The reaction mixture was vortexed, and resultant Indium-111-Merc was extracted in chloroform or methylene chloride. This was evaporated to dryness, and the complex was taken up in 50 μl ethanol and 150 μl 0.9% NaCl. A known amount of radioactivity in 50 μl was then injected directly into the tumor in each mouse.
For treatment with Indium-111-Merc, human breast cancer cells (5×10^6) T47D were implanted similarly. These were also allowed to grow to up to 0.5 cm in diameter.

Entries after “also recorded” stand apart in the source; their conditions may differ.

Take `[111In+3].[O-]c1cccc2cccnc12.[O-]c1cccc2cccnc12.[O-]c1cccc2cccnc12` [Indium-111-oxine, Indium-111-oxine (8-hydroxyquinoline)]: in series [1] (DU145 tumor-bearing mice), the “kidney uptake at sacrifice” value is recorded as 7.5% and the “liver uptake at sacrifice” value amounted to 5.4%. Besides, the “injected activity retained in tumor at sacrifice” value in series [1] (DU145 tumor-bearing mice, corrected for decay) stood at 86.5%. The “tumor growth in treated animal” value in series [2] is “has not grown”. Besides, the “labeling of cells in the presence of plasma” value with cells is recorded as “not capable of binding cells in plasma; also recorded: cannot efficiently label cells”. Also, the body weight change entry in series [3] (DU145 tumor-bearing mice, on the average) was “none of the treated or untreated mice either gained or lost body weight”. In addition, the “radioactivity retained in the tumor (gamma camera image)” value in series [4] (22 days after intratumoral Indium-111-oxine injection) is “a major proportion; also recorded: nearly all”. Besides, the “tumor growth in treated mice (tumor size versus time, FIG. 4)” value in series [5] (DU145 tumor-bearing nude mice) is reported as “arrested”. Further, the “average tumor growth during the treatment period” value in series [5] (DU145 tumors, two intratumoral doses two weeks apart, untreated mice 200%) is on record as 117%.
Turning to “Indium-111-Merc (2-Mercaptopyridine-N-oxide)”, in series [1] (T47D tumor-bearing mice), the “injected activity retained in tumor at sacrifice” value turned out to be 92.97%, the “kidney activity at sacrifice” value is 4.03% and the “liver activity at sacrifice” value was found to be 1.02%. In the series with cells, the “labeling of cells in the presence of plasma” value was “can label cells in the presence of plasma”. Also, the body weight change entry in series [3] (T47D tumor-bearing mice) was “gained some body weight”. The stability in plasma result in series [6] was “does not break down in plasma”. Also, the “radioactivity still in the tumor (gamma camera image)” value in series [4] (10 days after intratumoral Indium-111-Merc injection) is listed as “a major proportion”. The “radioactivity retained in animal body” value in series [4] (ten days after the injection of Indium-111-Merc) is reported as “all”. For the same compound, the “tumor growth in treated mice (tumor size versus time, FIG. 5)” value in series [7] (T47D tumor-bearing nude mice) is given as “arrested”. Also, the “average tumor growth in the treated mice” value in series [7] (T47D tumors, two intratumoral doses two weeks apart, untreated controls 477%) was 172%.
